Assays:
wheat = assay: Test A pre-/postemergence herbicide test; type: in vivo, Triticum aestivum
Outline: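 Seeds in loam–sand blend received preemergence directed soil spray; separately, plants 2–10 cm at one- to two-leaf stage received postemergence spray, both with test chemicals in non-phytotoxic solvent with surfactant. After ~10 days in greenhouse, injury rated visually against untreated controls, 0 (no effect) to 100 (complete control).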

sedge, umbrella = assay: Test B flooded paddy test; type: in vivo, Cyperus difformis; details: 250 g ai/ha, Flood; scale of 0 to 100 where 0 is no effect and 100 is complete control
Outline: (§1)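 Visual ratings from 0, meaning no effect, up to 100, meaning complete control, were made by comparison with untreated controls 13 to 15 days after treatment. Test compounds went straight into floodwater standing 3 cm over the soil of pots holding 2-leaf seedlings.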

barnyardgrass = assay: Test B flooded paddy test; type: in vivo, Echinochloa crus-galli; details: 250 g ai/ha, Flood; scale of 0 to 100 where 0 is no effect and 100 is complete control
Outline: as §1

blackgrass = assay: Test C pre-/postemergence herbicide test; type: in vivo, Alopecurus myosuroides
Outline: (§2)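 Pre-emergence: seeds sown in loam/sand blend and treated with compound in surfactant-containing solvent. Post-emergence: plants at 2–18 cm (1- to 4-leaf stage) in peat-based medium sprayed with the same formulation. Visual rating versus controls after 13–15 days in greenhouse, scale 0 (no effect) to 100 (complete control).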

wheat (winter wheat) = assay: Test C pre-/postemergence herbicide test; type: in vivo, Triticum aestivum
Outline: as §2

crabgrass, large = assay: Test C pre-/postemergence herbicide test; type: in vivo, Digitaria sanguinalis
Outline: as §2

johnsongrass = assay: Test C pre-/postemergence herbicide test; type: in vivo, Sorghum halepense
Outline: as §2

pigweed = assay: Test C pre-/postemergence herbicide test; type: in vivo, Amaranthus retroflexus
Outline: as §2

ragweed = assay: Test C pre-/postemergence herbicide test; type: in vivo, Ambrosia elatior
Outline: as §2

velvetleaf = assay: Test C pre-/postemergence herbicide test; type: in vivo, Abutilon theophrasti
Outline: as §2

oilseed rape = assay: Test C pre-/postemergence herbicide test; type: in vivo, Brassica napus
Outline: as §2

[1] = Postemergence, 500 g ai/ha, 0 to 100 scale (0 no effect, 100 complete control)
[2] = Postemergence, 31 g ai/ha, scale 0 (no effect) to 100 (complete control)
[3] = Postemergence, 62 g ai/ha, scale 0 to 100 (0 no effect, 100 complete control)
[4] = Postemergence, 125 g ai/ha, scale 0 to 100 (0 no effect, 100 complete control)
[5] = Postemergence, 250 g ai/ha, scale 0 to 100 (0 no effect, 100 complete control)
[6] = Preemergence, 31 g ai/ha, scale 0 to 100, 0 is no effect and 100 is complete control
[7] = Preemergence, 62 g ai/ha, scale 0 to 100
[8] = Preemergence, 125 g ai/ha, scale 0 to 100 (0 no effect, 100 complete control)
[9] = Postemergence, 8 g ai/ha, scale 0 to 100 (0 no effect, 100 complete control)
[10] = Postemergence, 16 g ai/ha, scale 0 to 100 (0 no effect, 100 complete control)
[11] = Postemergence, 31 g ai/ha, scale 0 to 100 (0 no effect, 100 complete control)
[12] = Postemergence, 62 g ai/ha, scale 0 (no effect) to 100 (complete control)
[13] = Preemergence, 62 g ai/ha, scale 0 to 100 (0 no effect, 100 complete control)
[14] = Preemergence, 8 g ai/ha, scale 0 to 100
[15] = Preemergence, 16 g ai/ha, scale 0 to 100

O=C1NCC(c2ccccc2)C1C(=O)Nc1ccccc1F (racemic) [Compound 81]
Plant response rating, Wheat (wheat; Postemergence, 125 g ai/ha, 0 to 100 scale, 0 no effect, 100 complete control): 0
Plant response rating, Wheat (wheat; [1]): 0
Wheat plant response rating (wheat; Preemergence, 125 g ai/ha, visual rating on 0 to 100 scale (0 no effect, 100 complete control)): 0
Plant response rating, Wheat (wheat; preemergence, 500 g ai/ha, 0 to 100 scale): 20
Plant response rating, Sedge, Umbrella (sedge, umbrella): 0
Plant response rating, Barnyardgrass (barnyardgrass): 20
Plant response rating, Blackgrass (blackgrass; [2]): 0
Plant response rating, Blackgrass (blackgrass; [3]): 0
Plant response rating, Blackgrass (blackgrass; [4]): 0
Plant response rating, Blackgrass (blackgrass; [5]): 0
Blackgrass plant response rating (blackgrass; [6]): 0
Plant response rating, Blackgrass (blackgrass; [7]): 0
Plant response rating, Blackgrass (blackgrass; [8]): 0
Plant response rating (scale of 0 to 100), Blackgrass (blackgrass; Preemergence, 250 g ai/ha): 0
Plant response rating, Wheat (wheat (winter wheat); [2]): 0
Plant response rating, Wheat (wheat (winter wheat); [3]): 0
Plant response rating, Wheat (wheat (winter wheat); [4]): 0
Plant response rating, Wheat (wheat (winter wheat); [5]): 0
Wheat plant response rating (wheat (winter wheat); [6]): 0
Plant response rating, Wheat (wheat (winter wheat); [7]): 0
Plant response rating, Wheat (wheat (winter wheat); [8]): 0
Plant response rating (scale of 0 to 100), Wheat (wheat (winter wheat); Preemergence, 250 g ai/ha): 0
Plant response rating, Crabgrass, Large (crabgrass, large; [2]): 0
Plant response rating, Crabgrass, Large (crabgrass, large; [3]): 0
Plant response rating, Crabgrass, Large (crabgrass, large; [4]): 3
Plant response rating, Crabgrass, Large (crabgrass, large; [5]): 7
Crabgrass, Large plant response rating (crabgrass, large; [6]): 50
Plant response rating, Crabgrass, Large (crabgrass, large; [7]): 75
Plant response rating, Crabgrass, Large (crabgrass, large; [8]): 90
Plant response rating (scale of 0 to 100), Crabgrass, Large (crabgrass, large; Preemergence, 250 g ai/ha): 95
Plant response rating, Johnsongrass (johnsongrass; [2]): 0
Plant response rating, Johnsongrass (johnsongrass; [3]): 0
Plant response rating, Johnsongrass (johnsongrass; [4]): 0
Plant response rating, Johnsongrass (johnsongrass; [5]): 0
Johnsongrass plant response rating (johnsongrass; [6]): 0
Plant response rating, Johnsongrass (johnsongrass; [7]): 0
Plant response rating, Johnsongrass (johnsongrass; [8]): 0
Plant response rating (scale of 0 to 100), Johnsongrass (johnsongrass; Preemergence, 250 g ai/ha): 0
Plant response rating, Pigweed (pigweed; [2]): 0
Plant response rating, Pigweed (pigweed; [3]): 0
Plant response rating, Pigweed (pigweed; [4]): 0
Plant response rating, Pigweed (pigweed; [5]): 0
Pigweed plant response rating (pigweed; [6]): 0
Plant response rating, Pigweed (pigweed; [7]): 0
Plant response rating, Pigweed (pigweed; [8]): 0
Plant response rating (scale of 0 to 100), Pigweed (pigweed; Preemergence, 250 g ai/ha): 0
Plant response rating, Ragweed (ragweed; [2]): 0
Plant response rating, Ragweed (ragweed; [3]): 0
Plant response rating, Ragweed (ragweed; [4]): 0
Plant response rating, Ragweed (ragweed; [5]): 0
Ragweed plant response rating (ragweed; [6]): 0
Plant response rating, Ragweed (ragweed; [7]): 0
Plant response rating, Ragweed (ragweed; [8]): 0
Plant response rating (scale of 0 to 100), Ragweed (ragweed; Preemergence, 250 g ai/ha): 0
Plant response rating, Velvetleaf (velvetleaf; [2]): 0
Plant response rating, Velvetleaf (velvetleaf; [3]): 0
Plant response rating, Velvetleaf (velvetleaf; [4]): 0
Plant response rating, Velvetleaf (velvetleaf; [5]): 0
Velvetleaf plant response rating (velvetleaf; [6]): 0
Plant response rating, Velvetleaf (velvetleaf; [7]): 0
Plant response rating, Velvetleaf (velvetleaf; [8]): 0
Plant response rating (scale of 0 to 100), Velvetleaf (velvetleaf; Preemergence, 250 g ai/ha): 0

CN1CC(c2ccc(F)cc2)C(C(=O)Nc2cccc(F)c2F)C1=O (stereo not drawn) [Compound 271]
Plant response rating, Wheat (wheat; Postemergence, 125 g ai/ha, visual rating on 0 to 100 scale (0 no effect, 100 complete control), approx. 10 days): 0
Plant response rating, Wheat (wheat; [1]): 80
Plant response rating, Blackgrass (blackgrass; [9]): 0
Plant response rating, Blackgrass (blackgrass; [10]): 0
Plant response rating, Blackgrass (blackgrass; [11]): 0
Plant response rating, Blackgrass (blackgrass; [12]): 0
Blackgrass plant response rating (blackgrass; [6]): 0
Blackgrass plant response rating (blackgrass; [13]): 50
Plant response rating, Blackgrass (blackgrass; [14]): 0
Plant response rating, Wheat (wheat (winter wheat); [9]): 0
Plant response rating, Wheat (wheat (winter wheat); [10]): 0
Plant response rating, Wheat (wheat (winter wheat); [11]): 0
Plant response rating, Wheat (wheat (winter wheat); [12]): 0
Wheat plant response rating (wheat (winter wheat); [6]): 0
Wheat plant response rating (wheat (winter wheat); [13]): 0
Plant response rating, Wheat (wheat (winter wheat); [14]): 0
Plant response rating, Wheat (wheat (winter wheat); [15]): 0
Plant response rating, Crabgrass, Large (crabgrass, large; [9]): 0
Plant response rating, Crabgrass, Large (crabgrass, large; [10]): 0
Plant response rating, Crabgrass, Large (crabgrass, large; [11]): 5
Plant response rating, Crabgrass, Large (crabgrass, large; [12]): 5
Crabgrass, Large plant response rating (crabgrass, large; [6]): 95
Crabgrass, Large plant response rating (crabgrass, large; [13]): 100
Plant response rating, Crabgrass, Large (crabgrass, large; [14]): 50
Plant response rating, Crabgrass, Large (crabgrass, large; [15]): 90
Plant response rating, Johnsongrass (johnsongrass; [9]): 10
Plant response rating, Johnsongrass (johnsongrass; [10]): 10
Plant response rating, Johnsongrass (johnsongrass; [11]): 10
Plant response rating, Johnsongrass (johnsongrass; [12]): 10
Johnsongrass plant response rating (johnsongrass; [6]): 0
Johnsongrass plant response rating (johnsongrass; [13]): 10
Plant response rating, Johnsongrass (johnsongrass; [14]): 0
Plant response rating, Johnsongrass (johnsongrass; [15]): 0
Plant response rating, Pigweed (pigweed; [9]): 5
Plant response rating, Pigweed (pigweed; [10]): 5
Plant response rating, Pigweed (pigweed; [11]): 10
Plant response rating, Pigweed (pigweed; [12]): 30
Pigweed plant response rating (pigweed; [6]): 0
Pigweed plant response rating (pigweed; [13]): 25
Plant response rating, Pigweed (pigweed; [15]): 0
Plant response rating, Ragweed (ragweed; [9]): 0
Plant response rating, Ragweed (ragweed; [10]): 15
Plant response rating, Ragweed (ragweed; [11]): 25
Plant response rating, Ragweed (ragweed; [12]): 40
Ragweed plant response rating (ragweed; [6]): 0
Ragweed plant response rating (ragweed; [13]): 10
Plant response rating, Ragweed (ragweed; [14]): 0
Plant response rating, Ragweed (ragweed; [15]): 0
Plant response rating, Oilseed Rape (oilseed rape; [9]): 0
Plant response rating, Oilseed Rape (oilseed rape; [10]): 0
Plant response rating, Oilseed Rape (oilseed rape; [11]): 0
Plant response rating, Oilseed Rape (oilseed rape; [12]): 20
Oilseed Rape plant response rating (oilseed rape; [6]): 0
Oilseed Rape plant response rating (oilseed rape; [13]): 20
Plant response rating, Oilseed Rape (oilseed rape; [14]): 0
Plant response rating, Oilseed Rape (oilseed rape; [15]): 0
Plant response rating, Velvetleaf (velvetleaf; [9]): 0
Plant response rating, Velvetleaf (velvetleaf; [10]): 0
Plant response rating, Velvetleaf (velvetleaf; [11]): 5
Plant response rating, Velvetleaf (velvetleaf; [12]): 5
Velvetleaf plant response rating (velvetleaf; [6]): 0
Velvetleaf plant response rating (velvetleaf; [13]): 10
Plant response rating, Velvetleaf (velvetleaf; [14]): 0
Plant response rating, Velvetleaf (velvetleaf; [15]): 0

— patent US10294202B2, “Pyrrolidinones as herbicides” (FMC Corporation, priority 2013, dated 2019)
